# Residues, ends and D or L forms follow the SMILES beside them. *: point of attachment. Cbz = O=C(OCc1ccccc1)*; CH2F = FC*
# Legend:
# [1] = system: CD4 T cells in HIV-1 (NL4-3)-infected HLACs; assay: CD4 T-cell death in HIV-1-infected HLACs, viable CD4 T cells by flow cytometry; format: cell-based, human; conditions: 3 days
# Protocol: HLACs were left uninfected or infected with HIV-1 (NL4-3 clone) in the presence of AZT, efavirenz, AMD3100, or caspase inhibitors (20 μM each), as indicated in FIG. 16. After 3 days, the percentages of viable CD4 T cells in the cultures were determined by flow cytometry.
# HLACs were left uninfected or infected with NL4-3 in the presence of no drugs, efavirenz, AMD3100, or caspase inhibitors (50 μM or 100 μM), as indicated in FIG. 16B. After 3 days, the percentages of viable CD4 T cells in the cultures were determined by flow cytometry.
# [2] = system: lactate dehydrogenase (LDH) release; assay: LDH release from HIV-1-infected HLACs (pyroptosis); format: cell-based, human; conditions: caspase inhibitors 50 μM or 100 μM, 3 days, FIG. 16C
# Protocol: Caspase-1 activation can lead to a highly inflammatory form of cell death called pyroptosis. To gain insight into how CD4 T cells die, it was determined whether HIV infection in CD4 T cells induce pyroptosis cell death, as measured by lactate dehydrogenase (LDH) release. HLACs were left uninfected or infected with NL4-3 in the presence of no drugs, efavirenz, AMD3100, or caspase inhibitors (50 μM or 100 μM), as indicated in FIG. 16C. After 3 days, the supernatants were assayed for the cytosolic enzyme lactate dehydrogenase (LDH) and the LDH released by dying cells was quantified.
# [3] = system: CD4 T cells in HIV-1 (NL4-3)-infected HLACs; assay: CD4 T-cell death in HIV-1-infected HLACs, viable CD4 T cells by flow cytometry; format: cell-based, human; conditions: FIG. 15, 4 different donors
# CFSE-labeled CD4 T-cells = format: cell-based, human
# Protocol: (A) Experimental strategy to assess indirect cell killing in HIV-1-infected human lymphoid cultures. Fresh human tonsil tissue from a single donor is processed into HLAC, and then separated into two fractions. One fraction is challenged with HIV-1 and cultured for 6 days, allowing viral spread. On day 5, the uninfected fraction is treated with AZT (5 μM) and labeled with CFSE (1 μM). On day 6, the infected and CFSE-labeled (i.e., uninfected) cultures are mixed and co-cultured in the presence of AZT. […] After 6 days of co-culturing, the number of viable CFSE-positive cells is determined by flow cytometry. (B) Flow cytometry analysis of the mixed HLACs. Indirect killing is determined by gating on live CFSE-positive cells in the mixed cultures. Effector cells are either infected or uninfected cells. […] CFSE-labeled cells mixed with uninfected or infected cells were cultured in the presence of 5 μM AZT alone or together with 250 nM AMD3100. Data represent live CFSE-positive cells 6 days after co-culture with infected or uninfected effector cells. […] The absolute numbers of viable CFSE-positive CD4 and CD8 T-cells and B cells were determined. Percentages are normalized to the number of viable CFSE-positive cells co-cultured with uninfected cells in the presence of AZT, as depicted by (*). Error bars represent standard deviations of three samples from the same donor. […] See also FIG. 3.
# Human tonsil or splenic tissues from routine tonsillectomies were obtained from the National Disease Research Interchange and the Cooperative Human Tissue Network and processed as previously described (Jekle et al., 2003, J Virol 77:5846-5854). In brief, tonsils or spleen were minced, passed through a 40-μm cell strainer, and cultured in 96-well U-bottomed polystyrene plates (2×10^6 cells/well) in medium (200 μl/well) consisting of RPMI 1640 supplemented with 15% heat-inactivated fetal bovine serum, 100 μg/ml gentamicin, 200 μg/ml ampicillin, 1 mM sodium pyruvate, 1% nonessential amino acids (Mediatech), 2 mM L-glutamine, and 1% fungizone (Invitrogen). All HIV-1 infections were carried out with 20-50 ng of HIV-1 p24^gag. Cells were incubated with the virus for 12-16 h, washed extensively, and supplemented with fresh medium. After day 5, infections were monitored by measuring p24gag levels in the culture medium using a FLAQ assay (Hayden et al., 2003, AIDS 17:629-631). Infected and uninfected cultures were manipulated as described for individual experiments. In “indirect killing” assays, unless otherwise stated, drugs were used at the following concentrations: 5 μM AZT; 250 nM AMD3100; 10 μg/ml T20; 100 nM Efavirenz; 1 μM Nevirapine; 30 μM Raltegravir; 60 μM 118-D-24; 5 μM Amprenavir; 5 μM Saquinavir; 5 μM Indinavir. CFSE-labeled cells were activated with PHA (5 μg/ml) and IL-2 (20 ng/ml) 2 days before mixing with effector cells.
# Uninfected cells (5×10^6/ml) were labeled with 1 μM CFSE (Molecular Probes C1157), treated with 5 μM AZT for 24 h, and co-cultured with effector cells. CFSE readily diffuses into cells, where intracellular esterases cleave the acetate groups, converting it to a fluorescent, membrane-impermeable dye.
# [4] = system: AIM2 (Absent in melanoma-2) inflammasome; conditions: by preventing ASC oligomerisation; cited from earlier work
# human PBMCs = conditions: cited from earlier work
# [5] = system: murine models of inflammatory disease; conditions: cited from earlier work
# human caspases = conditions: irreversible broad-spectrum; cited from earlier work
# [6] = system: patients with chronic Hepatitis C; conditions: oral or intravenous, 5 mg to 400 mg daily; cited from earlier work
# [7] = system: CI/WR (cold ischemia/warm reperfusion)-induced apoptosis and injury in the liver; conditions: in vivo; cited from earlier work
# [8] = system: patients with hepatic impairment; conditions: phase I; cited from earlier work
# [9] = system: other classes of proteases or other enzymes or receptors; conditions: cited from earlier work
# IL-1β = assay: Release of 17-kDa IL-1β from isolated tonsillar CD4 T-cells (ionophore stimulus); format: cell-based, human; conditions: nigericin 10 μM
# Protocol: For stimulating the processing and secretion of IL-1, CD4 T-cells were isolated from HLACs by positive selection and treated with 0.5 μM PMA ([…], Calbiochem Cat. #524400) for 6 hours at 37° C. PMA induces large intracellular stores of the 35 kDa pro-IL-1β. Cells were then washed with PBS and treated with 10 μM nigericin (Sigma, Cat. # N7143) overnight at 37° C. The potassium ionophore nigericin mediates an elecroneutral exchange of intracellular K^+ ions for extracellular protons, providing a second inflammatory stimulus, which results in the maturation and release of the bioactive 17 kDa IL-1β(Perregaux et al., 1992, J Immunol 149:1294-1303; Perregaux and Gabel, 1994, J Biol Chem 269:15195-15203).
# Isolated tonsillar CD4 T-cells were treated overnight with nigericin (10 μM) to provide a second inflammatory stimulus, resulting in maturation and release of bioactive 17-kDa IL-1β. Supernatants from the cell cultures were subjected to SDS-PAGE and immunoblotting. 17-kDa IL-1β was released after treatment with nigericin, but not with calcium ionophore A23187 or the nonspecific cation ionophore monensin. Thus, while these cells are primed, they must receive the appropriate proinflammatory signal for pro-IL-1β processing and release. […]
# caspase-1 = caspase-1 (Homo sapiens, UniProt P29466); conditions: cited from earlier work
# [10] = system: transient ischemia in rat; conditions: cited from earlier work
# caspase-4 = caspase-4 (Homo sapiens, UniProt P49662); conditions: read-out: Ki against caspase-4; cited from earlier work
# Chain of caspase-4 (P49662 81-270 limits assumed): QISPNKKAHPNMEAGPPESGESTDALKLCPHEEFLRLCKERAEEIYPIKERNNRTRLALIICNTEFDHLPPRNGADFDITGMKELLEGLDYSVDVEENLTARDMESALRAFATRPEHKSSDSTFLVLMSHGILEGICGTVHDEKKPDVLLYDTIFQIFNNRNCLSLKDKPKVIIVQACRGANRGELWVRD
# Chain of caspase-4 (P49662 290-377 limits assumed): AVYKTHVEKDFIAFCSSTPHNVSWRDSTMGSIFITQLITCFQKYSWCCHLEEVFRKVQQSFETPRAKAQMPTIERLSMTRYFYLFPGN
# Chain of caspase-1 (P29466 120-297 limits assumed): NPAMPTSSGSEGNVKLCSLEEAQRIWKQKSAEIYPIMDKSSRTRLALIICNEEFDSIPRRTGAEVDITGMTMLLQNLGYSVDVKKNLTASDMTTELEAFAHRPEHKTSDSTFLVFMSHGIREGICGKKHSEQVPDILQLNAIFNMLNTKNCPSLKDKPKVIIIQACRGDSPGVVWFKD
# Chain of caspase-1 (P29466 317-404 limits assumed): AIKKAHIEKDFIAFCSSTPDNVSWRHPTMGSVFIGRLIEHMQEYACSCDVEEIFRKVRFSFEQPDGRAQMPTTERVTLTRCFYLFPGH
compound,measurement,setting,value
COC(=O)CC[C@H](NC(=O)[C@H](CC(=O)OC)NC(=O)OCc1ccccc1)C(=O)N[C@H](C(=O)N[C@@H](CC(=O)OC)C(=O)CF)C(C)C [Z-DEVD-FMK],CD4 T-cell population whose death was prevented,"[1]; 20 μM, FIG. 16A",50%
same,CD4 T-cell death in HIV-infected cultures,"[1]; caspase inhibitors 50 μM or 100 μM, FIG. 16B",did not prevent the death
same,LDH release from HIV-1 infected cells,[2],did not prevent the LDH release
same,death of infected CD4 T-cells,[3],"also inhibits death of infected CD4 T cells, however, not as efficient as caspase-1 inhibitors"
same,reduction of cell death,"CFSE-labeled CD4 T-cells; 20 μM, specific inhibition of caspase-3",50%
CC(C)(O)c1coc(S(=O)(=O)NC(=O)Nc2c3c(cc4c2CCC4)CCC3)c1 [CRID3],AIM2 inflammasome,[4],inhibited
"CCO[C@@H]1OC(=O)C[C@@H]1NC(=O)[C@@H]1CCCN1C(=O)[C@@H](NC(=O)c1ccc(N)c(Cl)c1)C(C)(C)C [VX-765, (S)-1-((S)-2-{[1-(4-Amino-3-chloro-phenyl)-methanoyl]-amino}-3,3-dimethyl-butanoyl)-pyrrolidine-2-carboxylic acid ((2R,3S)-2-ethoxy-5-oxo-tetrahydro-furan-3-yl)-amide]",IL-1β secretion,human PBMCs; Stack et al.,blocked IL-1β secretion
same,IC50,"human PBMCs; human PBMCs, read-out: IC50, release of LPS-induced IL-1β and IL-18",~700 nM
same,inflammatory response,[5],reduces inflammatory response
C[C@H](NC(=O)C(=O)Nc1ccccc1C(C)(C)C)C(=O)N[C@@H](CC(=O)O)C(=O)COc1c(F)c(F)cc(F)c1F [IDN-6556],caspase inhibition spectrum,human caspases,activity against all tested human caspases
same,efficacy (aminotransferase activity),[6],efficacious
same,tolerability,[6],well tolerated
same,CI/WR-induced apoptosis and injury in the liver and other organs,[7],reduced CI/WR (cold ischemia/warm reperfusion)-induced apoptosis and injury
same,tolerability,[8],well tolerated
same,inhibition of other classes of proteases or other enzymes or receptors,[9],no inhibition
"COC(=O)C[C@H](NC(=O)[C@H](C)NC(=O)[C@@H](NC(=O)OCc1ccccc1)C(C)C)C(=O)CF [Z-VAD-FMK, Z-Val-Ala-Asp(OMe)-Fluoro methyl ester] (Cbz-Val-Ala-Asp(OMe)-CH2F)",nigericin-induced IL-1β release after pre-treatment with caspase inhibitor,IL-1β,blocked
same,death of infected CD4 T-cells,[3],inhibit the death of infected CD4 T-cells
same,death of abortively infected CD4 T-cells with caspase inhibitors,"CFSE-labeled CD4 T-cells; 20 μM caspase inhibitor, AZT 5 μM",completely prevented
O=C[C@H](CC(=O)O)NC(=O)[C@@H]1CCCN2C(=O)CC[C@H](NC(=O)c3nccc4ccccc34)C(=O)N12 [VRT-018858],selectivity for caspase 1 and caspase-4 against other caspases,caspase-1,> 100 fold
same,Ki,caspase-1; read-out: Ki against caspase-1,1.3 nM
same,brain damage induced by transient ischemia,[10],markedly reduced brain damage
same,Ki,caspase-4,0.4 nM

# Source: patent US9352010B2, “Treatment of HIV-1 infection and AIDS” (The J. David Gladstone Institutes, priority 2011, dated 2016)
